The NIST ThermoML archive (doi:10.1016/j.fluid.2018.04.024)

Settings: Liquid, Vibrating tube method

CCCCCCCC(=O)OC [methyl octanoate]
mass density [kg/m3]
Settings	293.15 K	303.15 K	313.15 K	323.15 K	333.15 K	343.15 K	353.15 K	363.15 K
100 kPa	876.9	867.63	859.3	850.11	841.41	832.2	823.55	814.86
1000 kPa	877.02	868.42	859.59	850.91	842.13	833.32	824.37	815.91
3000 kPa	878.65	869.93	861.28	852.59	844.08	835.25	826.59	818.18
5000 kPa	879.78	871.47	862.89	854.3	845.82	837.24	828.51	820.31
10000 kPa	883.45	875.12	866.8	858.46	850.11	841.71	833.34	825.1
15000 kPa	886.82	878.71	870.52	862.36	854.18	846.06	838.05	830.33
20000 kPa	890.07	882.04	874.1	866.24	858.22	850.39	842.32	834.62
25000 kPa	893.28	885.35	877.59	869.67	862.06	854.17	846.49	838.84
30000 kPa	896.35	888.57	880.87	873.15	865.57	858.07	850.48	843.09
35000 kPa	899.25	891.59	884.11	876.46	869.05	861.81	854.32	847.13
40000 kPa	902.05	894.49	887.04	879.75	872.61	865.19	857.88	851.06
50000 kPa	907.81	900.27	893.07	885.93	878.98	872.01	864.82	858.24
60000 kPa	912.62	905.64	898.5	891.84	884.95	877.98	871.35	865.07

CCCCCCC(=O)OC [methyl heptanoate]
mass density [kg/m3]
Settings	293.15 K	303.15 K	313.15 K	323.15 K	333.15 K	343.15 K	353.15 K	363.15 K
100 kPa	880.16	870.66	861.82	852.25	843.03	833.48	824.35	815.19
1000 kPa	880.29	871.46	862.16	853.12	843.81	834.64	825.27	816.36
3000 kPa	881.98	873.07	863.9	854.89	845.84	836.7	827.61	818.75
5000 kPa	883.19	874.66	865.62	856.64	847.68	838.79	829.66	821
10000 kPa	886.99	878.5	869.71	860.97	852.16	843.47	834.76	826.14
15000 kPa	890.49	882.18	873.55	865.07	856.43	848.02	839.63	831.57
20000 kPa	893.86	885.64	877.29	869.08	860.63	852.59	844.11	836.11
25000 kPa	897.18	889.08	880.89	872.69	864.64	856.55	848.48	840.56
30000 kPa	900.36	892.3	884.32	876.31	868.31	860.57	852.65	845.01
35000 kPa	903.34	895.46	887.66	879.74	871.91	864.43	856.65	849.23
40000 kPa	906.22	898.49	890.73	883.15	875.61	867.96	860.37	853.33
50000 kPa	912.14	904.43	896.98	889.53	882.2	875	867.57	860.82
60000 kPa	917.16	909.95	902.59	895.63	888.39	881.19	874.32	867.91

CCCCC(=O)OC [methyl pentanoate]
mass density [kg/m3]
Settings	293.15 K	303.15 K	313.15 K	323.15 K	333.15 K	343.15 K	353.15 K	363.15 K
100 kPa	890.18	879.57	869.49	858.83	848.52	837.8	827.35	816.63
1000 kPa	890.39	880.52	869.89	859.81	849.45	839.04	828.43	817.89
3000 kPa	892.23	882.29	871.87	861.81	851.71	841.41	831.13	820.7
5000 kPa	893.59	884.05	873.76	863.85	853.79	843.76	833.48	823.32
10000 kPa	897.77	888.3	878.33	868.67	858.86	849.05	839.27	829.23
15000 kPa	901.59	892.37	882.44	873.18	863.66	854.23	844.84	835.46
20000 kPa	905.28	896.14	886.62	877.67	868.26	859.25	849.86	840.59
25000 kPa	908.91	899.89	890.61	881.64	872.72	863.69	854.79	845.61
30000 kPa	912.4	903.55	894.38	885.65	876.79	868.17	859.45	850.57
35000 kPa	915.63	906.97	898.09	889.44	880.79	872.41	863.9	855.31
40000 kPa	918.78	910.27	901.45	893.13	884.78	876.28	868	859.8
50000 kPa	925.12	916.73	908.24	900.12	892.02	884.03	875.94	868.09
60000 kPa	930.63	922.74	914.32	906.77	898.8	890.84	883.37	875.9
